Columns and labels:
Type in all cases: in vivo
[1] = system: corn; experiment: Growth regulation of corn (dipping); details: 1330 ppm
[2] = system: Quackgrass; experiment: Pre-emergent herbicidal test; details: 4 WAT, 11.2 kg/h; also: ranges in brackets are in %
Description: (§1) The pre-emergent test was conducted as follows:
(§2) A good grade of top soil was placed in aluminum pans and compacted to a depth of three-eighths to one-half inch from the top of the pan. On the top of the soil was placed a predetermined number of seeds or vegetative propagules of various plant species which were pressed into the soil surface. The soil required to level fill the pans after seeding or adding vegetative propagules was weighed into a pan. A known amount of the active ingredient applied in a solvent or as a wettable powder and the soil were thoroughly mixed, and used as a cover layer for prepared pans.
(§3) The herbicidal rating was obtained by means of a fixed scale based on the percent injury of each plant species. The ratings are defined as follows: […]
(§4) The compounds were also tested by utilizing the above procedure on the following plant species: […]

[3] = system: Velvetleaf; experiment: Pre-emergent herbicidal test; details: 4 WAT; also: ranges in brackets are in %
Description: as §1, §2, §3, §4

[4] = system: Morningglory; experiment: Pre-emergent herbicidal test; details: 4 WAT; also: ranges in brackets are in %
Description: as §1, §2, §3, §4

[5] = system: Canada Thistle; experiment: Pre-emergent herbicidal test; details: 4 WAT, 11.2 kg/h; also: ranges in brackets are in %
Description: as §1, §2, §3, §4

[6] = system: Smartweed; experiment: Pre-emergent herbicidal test; details: 4 WAT; also: ranges in brackets are in %
Description: as §1, §2, §3, §4

[7] = system: Barnyardgrass; experiment: Pre-emergent herbicidal test; details: 4 WAT; also: ranges in brackets are in %
Description: as §1, §2, §3, §4

[8] = system: Cocklebur; experiment: Pre-emergent herbicidal test; details: 4 WAT; also: ranges in brackets are in %
Description: as §1, §2, §3, §4

[9] = system: Yellow Nutsedge; experiment: Pre-emergent herbicidal test; details: 4 WAT, 11.2 kg/h; also: ranges in brackets are in %
Description: as §1, §2, §3, §4

[10] = system: Lambsquarters; experiment: Pre-emergent herbicidal test; details: 4 WAT; also: ranges in brackets are in %
Description: as §1, §2, §3, §4

[11] = system: Johnsongrass; experiment: Pre-emergent herbicidal test; details: 4 WAT, 11.2 kg/h; also: ranges in brackets are in %
Description: as §1, §2, §3, §4

[12] = system: Downy Brome; experiment: Pre-emergent herbicidal test; details: 4 WAT; also: ranges in brackets are in %
Description: as §1, §2, §3, §4

[13] = system: Quackgrass; experiment: Post-emergent herbicidal test; details: 4 WAT, 11.2 kg/h; also: ranges in brackets are in %
Description: (§5) The post-emergent tests were conducted as follows:
(§6) The active ingredients are applied in spray form to two or three week old specimens of various plant species. The spray, a solution or wettable powder suspension containing the appropriate rate of active ingredient to give the desired test rate and a surfactant, is applied to the plants.
as §4

[14] = system: Velvetleaf; experiment: Post-emergent herbicidal test; details: 4 WAT; also: ranges in brackets are in %
Description: as §5, §6, §4

[15] = system: Morningglory; experiment: Post-emergent herbicidal test; details: 4 WAT; also: ranges in brackets are in %
Description: as §5, §6, §4

[16] = system: Canada Thistle; experiment: Post-emergent herbicidal test; details: 4 WAT, 11.2 kg/h; also: ranges in brackets are in %
Description: as §5, §6, §4

[17] = system: Smartweed; experiment: Post-emergent herbicidal test; details: 4 WAT; also: ranges in brackets are in %
Description: as §5, §6, §4

[18] = system: Barnyardgrass; experiment: Post-emergent herbicidal test; details: 4 WAT; also: ranges in brackets are in %
Description: as §5, §6, §4

[19] = system: Cocklebur; experiment: Post-emergent herbicidal test; details: 4 WAT; also: ranges in brackets are in %
Description: as §5, §6, §4

[20] = system: Yellow Nutsedge; experiment: Post-emergent herbicidal test; details: 4 WAT, 11.2 kg/h; also: ranges in brackets are in %
Description: as §5, §6, §4

[21] = system: Lambsquarters; experiment: Post-emergent herbicidal test; details: 4 WAT; also: ranges in brackets are in %
Description: as §5, §6, §4

[22] = system: Johnsongrass; experiment: Post-emergent herbicidal test; details: 4 WAT, 11.2 kg/h; also: ranges in brackets are in %
Description: as §5, §6, §4

[23] = system: Downy Brome; experiment: Post-emergent herbicidal test; details: 4 WAT; also: ranges in brackets are in %
Description: as §5, §6, §4

[24] = system: Panicum Spp.; experiment: Pre-emergent herbicidal test; details: 4 WAT; also: ranges in brackets are in %
Description: as §1, §2, §3

[25] = system: Rice; experiment: Pre-emergent herbicidal test; details: 4 WAT; also: ranges in brackets are in %
Description: as §1, §2, §3

[26] = system: Wild Buckwheat; experiment: Pre-emergent herbicidal test; details: 4 WAT; also: ranges in brackets are in %
Description: as §1, §2, §3

[27] = system: Sorghum; experiment: Pre-emergent herbicidal test; details: 4 WAT; also: ranges in brackets are in %
Description: as §1, §2, §3

[28] = system: Crabgrass; experiment: Pre-emergent herbicidal test; details: 4 WAT; also: ranges in brackets are in %
Description: as §1, §2, §3

[29] = system: Hemp Sesbania; experiment: Pre-emergent herbicidal test; details: 4 WAT; also: ranges in brackets are in %
Description: as §1, §2, §3

[30] = system: Soybean; experiment: Pre-emergent herbicidal test; details: 4 WAT; also: ranges in brackets are in %
Description: as §1, §2, §3

[31] = system: Wheat; experiment: Pre-emergent herbicidal test; details: 4 WAT; also: ranges in brackets are in %
Description: as §1, §2, §3

[32] = system: Sugarbeet; experiment: Pre-emergent herbicidal test; details: 4 WAT; also: ranges in brackets are in %
Description: as §1, §2, §3

[33] = system: Panicum Spp.; experiment: Post-emergent herbicidal test; details: 4 WAT; also: ranges in brackets are in %
Description: as §5, §6

[34] = system: Rice; experiment: Post-emergent herbicidal test; details: 4 WAT; also: ranges in brackets are in %
Description: as §5, §6

[35] = system: Wild Buckwheat; experiment: Post-emergent herbicidal test; details: 4 WAT; also: ranges in brackets are in %
Description: as §5, §6

[36] = system: Sorghum; experiment: Post-emergent herbicidal test; details: 4 WAT; also: ranges in brackets are in %
Description: as §5, §6

[37] = system: Crabgrass; experiment: Post-emergent herbicidal test; details: 4 WAT; also: ranges in brackets are in %
Description: as §5, §6

[38] = system: Hemp Sesbania; experiment: Post-emergent herbicidal test; details: 4 WAT; also: ranges in brackets are in %
Description: as §5, §6

[39] = system: Soybean; experiment: Post-emergent herbicidal test; details: 4 WAT; also: ranges in brackets are in %
Description: as §5, §6

[40] = system: Wheat; experiment: Post-emergent herbicidal test; details: 4 WAT; also: ranges in brackets are in %
Description: as §5, §6

[41] = system: Sugarbeet; experiment: Post-emergent herbicidal test; details: 4 WAT; also: ranges in brackets are in %
Description: as §5, §6

In the case of “Ethyl 2-[3-[3-(Trifluoromethyl)Phenyl]-5-Isoxazolyl]Benzoate [Example 4]”, the Observations [1] is reported as “reduction in stature and "buggy whipping" of the leaves”, the herbicidal rating [2] is reported as 2 (50-74) and the herbicidal rating ([3]; 1.12 kg/h) is reported as 0 (0-24). The herbicidal rating ([3]; 5.60 kg/h) was 1 (25-49), the herbicidal rating ([3]; 11.2 kg/h) was 2 (50-74) and the herbicidal rating ([4]; 1.12 kg/h) was 2 (50-74). For the same substance, the herbicidal rating ([4]; 5.60 kg/h) was 3 (75-100), the herbicidal rating ([4]; 11.2 kg/h) was 2 (50-74) and the herbicidal rating [5] was 2 (50-74). The herbicidal rating ([6]; 1.12 kg/h) was 3 (75-100), the herbicidal rating ([6]; 5.60 kg/h) was 3 (75-100) and the herbicidal rating ([6]; 11.2 kg/h) was 2 (50-74). For the same substance, the herbicidal rating ([7]; 1.12 kg/h) was 3 (75-100), the herbicidal rating ([7]; 5.60 kg/h) was 3 (75-100) and the herbicidal rating ([7]; 11.2 kg/h) was 3 (75-100). For the same substance, the herbicidal rating ([8]; 1.12 kg/h) was 0 (0-24), the herbicidal rating ([8]; 5.60 kg/h) was 1 (25-49) and the herbicidal rating ([8]; 11.2 kg/h) was 1 (25-49). For the same substance, the herbicidal rating [9] was 0 (0-24), the herbicidal rating ([10]; 1.12 kg/h) was 3 (75-100) and the herbicidal rating ([10]; 5.60 kg/h) was 2 (50-74). The herbicidal rating ([10]; 11.2 kg/h) was 2 (50-74), the herbicidal rating [11] was 0 (0-24) and the herbicidal rating ([12]; 1.12 kg/h) was 1 (25-49). For the same substance, the herbicidal rating ([12]; 5.60 kg/h) was 2 (50-74), the herbicidal rating ([12]; 11.2 kg/h) was 2 (50-74) and the herbicidal rating [13] was 1 (25-49). The herbicidal rating ([14]; 1.12 kg/h) was 2 (50-74), the herbicidal rating ([14]; 5.60 kg/h) was 1 (25-49) and the herbicidal rating ([14]; 11.2 kg/h) was 2 (50-74). The herbicidal rating ([15]; 1.12 kg/h) was 2 (50-74), the herbicidal rating ([15]; 5.60 kg/h) was 2 (50-74) and the herbicidal rating ([15]; 11.2 kg/h) was 2 (50-74). The herbicidal rating [16] was 2 (50-74), the herbicidal rating ([17]; 1.12 kg/h) was 2 (50-74) and the herbicidal rating ([17]; 5.60 kg/h) was 4 (100). For the same substance, the herbicidal rating ([17]; 11.2 kg/h) was 2 (50-74), the herbicidal rating ([18]; 1.12 kg/h) was 2 (50-74) and the herbicidal rating ([18]; 5.60 kg/h) was 3 (75-99). The herbicidal rating ([18]; 11.2 kg/h) was 3 (75-99), the herbicidal rating ([19]; 1.12 kg/h) was 2 (50-74) and the herbicidal rating ([19]; 5.60 kg/h) was 2 (50-74). The herbicidal rating ([19]; 11.2 kg/h) was 1 (25-49), the herbicidal rating [20] was 1 (25-49) and the herbicidal rating ([21]; 1.12 kg/h) was 1 (25-49). The herbicidal rating ([21]; 5.60 kg/h) was 2 (50-74), the herbicidal rating ([21]; 11.2 kg/h) was 3 (75-99) and the herbicidal rating [22] was 1 (25-49). The herbicidal rating ([23]; 1.12 kg/h) was 0 (0-24), the herbicidal rating ([23]; 5.60 kg/h) was 0 (0-24) and the herbicidal rating ([23]; 11.2 kg/h) was 0 (0-24). The herbicidal rating ([24]; 1.12 kg/h) was 2 (50-74), the herbicidal rating ([24]; 5.60 kg/h) was 3 (75-100) and the herbicidal rating ([25]; 1.12 kg/h) was 3 (75-100). The herbicidal rating ([25]; 5.60 kg/h) was 3 (75-100), the herbicidal rating ([26]; 1.12 kg/h) was 2 (50-74) and the herbicidal rating ([26]; 5.60 kg/h) was 2 (50-74). For the same substance, the herbicidal rating ([27]; 1.12 kg/h) was 2 (50-74), the herbicidal rating ([27]; 5.60 kg/h) was 3 (75-100) and the herbicidal rating ([28]; 1.12 kg/h) was 1 (25-49). The herbicidal rating ([28]; 5.60 kg/h) was 3 (75-100), the herbicidal rating ([29]; 1.12 kg/h) was 1 (25-49) and the herbicidal rating ([29]; 5.60 kg/h) was 2 (50-74). For the same substance, the herbicidal rating ([30]; 1.12 kg/h) was 1 (25-49), the herbicidal rating ([30]; 5.60 kg/h) was 3 (75-100) and the herbicidal rating ([31]; 1.12 kg/h) was 0 (0-24). The herbicidal rating ([31]; 5.60 kg/h) was 1 (25-49), the herbicidal rating ([32]; 1.12 kg/h) was 1 (25-49) and the herbicidal rating ([32]; 5.60 kg/h) was 2 (50-74). For the same substance, the herbicidal rating ([33]; 1.12 kg/h) was 0 (0-24), the herbicidal rating ([33]; 5.60 kg/h) was 1 (25-49) and the herbicidal rating ([34]; 1.12 kg/h) was 1 (25-49). For the same substance, the herbicidal rating ([34]; 5.60 kg/h) was 1 (25-49), the herbicidal rating ([35]; 1.12 kg/h) was 2 (50-74) and the herbicidal rating ([35]; 5.60 kg/h) was 2 (50-74). For the same substance, the herbicidal rating ([36]; 1.12 kg/h) was 1 (25-49), the herbicidal rating ([36]; 5.60 kg/h) was 2 (50-74) and the herbicidal rating ([37]; 1.12 kg/h) was 1 (25-49). For the same substance, the herbicidal rating ([37]; 5.60 kg/h) was 2 (50-74), the herbicidal rating ([38]; 1.12 kg/h) was 2 (50-74) and the herbicidal rating ([38]; 5.60 kg/h) was 2 (50-74). The herbicidal rating ([39]; 1.12 kg/h) was 2 (50-74), the herbicidal rating ([39]; 5.60 kg/h) was 2 (50-74) and the herbicidal rating ([40]; 1.12 kg/h) was 0 (0-24). The herbicidal rating ([40]; 5.60 kg/h) was 1 (25-49), the herbicidal rating ([41]; 1.12 kg/h) was 1 (25-49) and the herbicidal rating ([41]; 5.60 kg/h) was 2 (50-74).

Reference: patent publication US4229204A, “Trifluoromethylphenyl isoxazolyl benzoates” (Monsanto Company, priority 1978, dated 1980)
